Experiments:
Assay type in all cases: in vivo
Setaria viridis = experiment: Herbicidal pre-emergence action against harmful plants; settings: dosage of 1000 g and less than 1000 g of active substance per hectare, visual scoring after 3 to 4 weeks, greenhouse
Description: (§1) 1. Herbicidal Pre-Emergence Action Against Harmful Plants
(§2) Seeds of mono- and dicotyledonous harmful plants are put in sandy loam in cardboard pots and covered with soil. The compounds according to the invention, which are formulated in the form of wettable powders or emulsion concentrates, are then applied to the surface of the soil cover as an aqueous suspension or emulsion at an application rate of 600 to 800 l/ha (converted) in various dosages. After the treatment, the pots are placed in a greenhouse and kept under good growth conditions for the weeds. Visual scoring of the plant damage or emergence damage is carried out after the test plants have emerged after a test period of 3 to 4 weeks in comparison with untreated controls.

Stellaria media [1] = experiment: as above; settings: dosage of 1000 g and less than 1000 g of active substance per hectare, visual scoring after 3 to 4 weeks, greenhouse
Description: as §1, §2

Amaranthus retroflexus [2] = experiment: as above; settings: dosage of 1000 g and less than 1000 g of active substance per hectare, visual scoring after 3 to 4 weeks, greenhouse
Description: as §1, §2

Lolium multiflorum = experiment: as above; settings: dosage of 1000 g and less than 1000 g of active substance per hectare, visual scoring after 3 to 4 weeks, greenhouse
Description: as §1, §2

Avena fatua = experiment: Herbicidal post-emergence action against harmful plants; settings: three-leaf stage, dosage of 1000 g and less than 1000 g of active substance per hectare, scored after 3 to 4 weeks, greenhouse
Experimental: (§3) 2. Herbicidal Post-Emergence Action Against Harmful Plants
(§4) Seeds of mono- and dicotyledonous harmful plants are put into sandy loam in cardboard pots, covered with soil and grown in the greenhouse under good growth conditions. Two to three weeks after sowing, the test plants are treated at the three-leaf stage. The compounds according to the invention, which are formulated as wettable powders or as emulsion concentrates, are sprayed onto the surface of the green plant parts in various dosages at a water application rate of 600 to 800 l/ha (converted). After the test plants have been left to stand in the greenhouse for 3 to 4 weeks under optimum growth conditions, the action of the compounds is scored.

Stellaria media [3] = experiment: as above; settings: three-leaf stage, dosage of 1000 g and less than 1000 g of active substance per hectare, scored after 3 to 4 weeks, greenhouse
Experimental: as §3, §4

Sinapis arvensis = experiment: as above; settings: three-leaf stage, dosage of 1000 g and less than 1000 g of active substance per hectare, scored after 3 to 4 weeks, greenhouse
Experimental: as §3, §4

Amaranthus retroflexus [4] = experiment: as above; settings: three-leaf stage, dosage of 1000 g and less than 1000 g of active substance per hectare, scored after 3 to 4 weeks, greenhouse
Experimental: as §3, §4

Cc1cc(-n2cc(C(F)(F)F)c(C)n2)nc(Oc2cc(C(F)(F)F)nn2C)n1 [9.14]
100%: action against Setaria viridis (Setaria viridis) | action against Stellaria media (Stellaria media [1]) | action against Amaranthus retroflexus (Amaranthus retroflexus [2])

CCc1cc(-n2cc(C(F)(F)F)c(C)n2)nc(Oc2ccnc(C(F)(F)F)c2)n1 [1.26]
100%: action against Setaria viridis (Setaria viridis) | action against Stellaria media (Stellaria media [1]) | action against Lolium multiflorum (Lolium multiflorum) | action against Amaranthus retroflexus (Amaranthus retroflexus [2])

Cc1cc(-n2cc(C(F)(F)F)c(C)n2)nc(Oc2ccnc(C(F)(F)F)c2)n1 [1.14]
100%: action against Setaria viridis (Setaria viridis) | action against Stellaria media (Stellaria media [1]) | action against Lolium multiflorum (Lolium multiflorum) | action against Amaranthus retroflexus (Amaranthus retroflexus [2])

Cc1cc(-n2cc(C(F)(F)F)cn2)nc(Oc2cc(C(F)(F)F)nn2C)n1 [9.13]
100%: action against Setaria viridis (Setaria viridis) | action against Stellaria media (Stellaria media [1]) | action against Amaranthus retroflexus (Amaranthus retroflexus [2])

COc1cc(-n2ncc(C(F)(F)F)c2C)nc(Oc2ccnc(C(F)(F)F)c2)n1 [1.39]
100%: action against Setaria viridis (Setaria viridis) | action against Stellaria media (Stellaria media [1]) | action against Lolium multiflorum (Lolium multiflorum) | action against Amaranthus retroflexus (Amaranthus retroflexus [2])

Cc1cc(-n2cc(C(F)(F)F)cn2)nc(Oc2csc(C(F)(F)F)c2)n1 [7.13]
100%: action against Setaria viridis (Setaria viridis) | action against Stellaria media (Stellaria media [1]) | action against Amaranthus retroflexus (Amaranthus retroflexus [2])

CCc1cc(-n2cc(C(F)(F)F)cn2)nc(Oc2cc(C(F)(F)F)nn2C)n1 [9.25]
100%: action against Avena fatua (Avena fatua) | action against Stellaria media (Stellaria media [3]) | action against Sinapis arvensis (Sinapis arvensis) | action against Amaranthus retroflexus (Amaranthus retroflexus [4])

COc1cc(-n2cc(C(F)(F)F)cn2)nc(Oc2ccnc(OC(F)F)c2)n1 [1.46]
100%: action against Avena fatua (Avena fatua) | action against Stellaria media (Stellaria media [3]) | action against Sinapis arvensis (Sinapis arvensis) | action against Amaranthus retroflexus (Amaranthus retroflexus [4]) | action against Setaria viridis (Setaria viridis) | action against Stellaria media (Stellaria media [1]) | action against Lolium multiflorum (Lolium multiflorum) | action against Amaranthus retroflexus (Amaranthus retroflexus [2])

Reference: patent US20050209106A1, “Substituted 4-(4-trifluoromethylpyrazolyl)pyrimidines” (Bayer CropScience GmbH, priority 2004, published 2005)
